Experiments:
neuroblastoma cell lines = test: in vitro cell viability of neuroblastoma cell lines (FIG. 2); type: cell-based
Excerpt: (§1) The IC50 values are between 80-140 microMolar for neuroblastoma cell lines, and 200 microMolar for normal fibroblasts (see FIG. 2).

[1] = 5 grams intravenously by 20 minute infusion; cited from earlier work
healthy fibroblasts (BJ) = test: in vitro cell viability of healthy fibroblasts (FIG. 2); type: cell-based; conditions: Fibroblast, normal fibroblasts
Excerpt: as §1

IMR5 tumors = test: IMR5 neuroblastoma tumors implanted subcutaneously in mice (FIGS. 3-6); type: in vivo; conditions: IMR5 tumors implanted subcutaneously in CB57 SCID mice
Excerpt: The efficacy observed with taurolidine treatment of IMR5 cell implants in vivo (FIGS. 3-6), despite IRM5's relatively high IC50 in vitro (FIG. 2), supports the conclusion that the hydrolysis products of taurolidine may have independent anti-neoplastic activity. […] Since it is known that taurolidine metabolizes to taurolidine hydrolysis products in vivo, this would support the conclusion that the hydrolysis products of taurolidine may have significant anti-neoplastic activity against neuroblastoma cells. In fact, it may be that the hydrolysis products of taurolidine have higher efficacy against neuroblastoma cells than taurolidine which has not been hydrolyzed.

SK-N-AS tumors = test: SK-N-AS neuroblastoma tumors implanted subcutaneously in mice (FIGS. 3-8); type: in vivo, CB57 SCID mice
leukemia cell lines = test: in vitro sensitivity of leukemia cell lines compared to healthy lymphocytes (FIG. 1); type: cell-based; conditions: leukemia cell lines vs healthy lymphocytes
[2] = mean pharmacokinetic parameters of taurinamide and taurultam (FIGS. 10, 11); conditions: in vivo; mean pharmacokinetic parameter, weight-based AUC
Experimental: FIG. 10 is a chart showing the mean pharmacokinetic parameters of taurinamide; and
FIG. 11 is a chart showing the mean pharmacokinetic parameters of taurultam.
The taurinamide is given with a dosage range of from 5 mg/kg to 280 mg/kg, with optimal range between 5 mg/kg and 60 mg/kg, from once daily through weekly, for an effective period of time based on individual patient response.
The taurultam is given with a dosage range of from 5 mg/kg to 280 mg/kg, with optimal range between 5 mg/kg and 60 mg/kg, from once daily through weekly, for an effective period of time based on individual patient response.

AUC(0-inf) [2]	SMILES	sensitivity to decrease in viability compared to healthy fibroblasts (neuroblastoma cell lines; neuroblastoma cell lines vs healthy fibroblasts (BJ), in vitro)	IC50 (neuroblastoma cell lines; neuroblastoma cell lines, cell viability in vitro, FIG. 2)	concentration at which in vitro efficacy is seen (neuroblastoma cell lines; neuroblastoma cell lines, highest two concentrations tested, FIG. 2)	concentration of taurolidine in healthy volunteers [1]	IC50 (healthy fibroblasts (BJ))	efficacy in tumors in vivo (IMR5 tumors)	efficacy in tumors in vivo (SK-N-AS tumors; SK-N-AS tumors implanted subcutaneously in CB57 SCID mice)	overall survival (SK-N-AS tumors; mice implanted with SK-N-AS tumor, vs control)	tumor size (SK-N-AS tumors; mice with SK-N-AS cell line tumors, vs control)	sensitivity compared to healthy lymphocytes (leukemia cell lines)
–	O=S1(=O)CCN(CN2CCS(=O)(=O)NC2)CN1 [taurolidine]	more sensitive	80 to 140 µM	above 40 microMolar	NO measurable concentration	200 µM	efficacy	measurable efficacy	not statistically different	Statistically significant decreases	more sensitive
313 µg·h/mL	NCCS(N)(=O)=O [Taurinamide, taurinamide]	–	–	–	–	–	–	–	–	–	–

Source: patent US11541061B2, “Neuroblastoma treatment with taurolidine hydrolysis products” (CorMedix Inc., priority 2016, dated 2023)
